{
  "source": "patent US8747873B2",
  "about": "“Compositions of dibromomalonamide and their use as biocides” (Dow Global Technologies LLC, priority 2012, dated 2014)",
  "key": {"[1]": {"test_system": "mixture of Pseudomonas aeruginosa ATCC 10145 and Staphylococcus aureus ATCC 6538", "test": "Kill assay (MBC, synergy index)", "assay_type": "cell-based", "details": "37° C., 2 hours", "experimental": "This assay is used as a preliminary evaluation of synergy between the actives. The procedure is as follows. A mineral salts solution (0.2203 g of CaCl2, 0.1847 g of MgSO4, and 0.2033 g of NaHCO3 in 1 L water, approximately pH 8) is inoculated with equal amounts (about 10^7 CFU/ml) of a mixture of Pseudomonas aeruginosa ATCC 10145 and Staphylococcus aureus ATCC 6538. Aliquots of the cell suspension are then treated with 2,2-dibromomalonamide (“DBMAL”), […], and their combinations at various concentration levels. […] The MBC values are then used to calculate a synergy index (SI) values.\nSummaries of the kill assay results are presented in the individual Examples. In each table, MBC values for each biocide and the blends tested are presented Likewise, the Synergy Index (“SI”) values for the combinations are listed. SI is calculated with the following equation: Synergy Index=Ca/CA+Mb/CB […]"}, "[2]": {"test_system": "mixture of Pseudomonas aeruginosa, Klebsiella pneumoniae, Staphylococcus aureus, and Bacillus subtilis", "test": "Growth inhibition assay", "assay_type": "cell-based", "details": "24 h; for inhibition at 0.19 µg/mL / inhibition at 0.39 µg/mL / inhibition at 0.78 µg/mL / inhibition at 1.56 µg/mL / inhibition at 3.13 µg/mL / inhibition at 6.25 µg/mL / inhibition at 12.5 µg/mL / inhibition at 25 µg/mL: read-out: % Inhibition of growth by DBMAL", "excerpt": "The growth inhibition assay used in the Examples measures inhibition of growth (or lack thereof) of a microbial consortium. Inhibition of growth can be the result of killing of the cells (so no growth occurs), killing of a significant portion of the populations of cells so that regrowth requires a prolonged time, or inhibition of growth without killing (stasis). Regardless of the mechanism of action, the impact of a biocide (or combination of biocides) can be measured over time on the basis of an increase in the size of the community.\nThe assay measures the efficacy of one or more biocides at preventing growth of a consortium of bacteria in a dilute mineral salts medium. The medium contains (in mg/l) the following components: FeCl3.6H2O (1); CaCl2.2H2O (10); MgSO4.7H2O (22.5); (NH4)2SO4 (40); KH2PO4 (10); K2HPO4 (25.5); Yeast Extract (10); and glucose (100). After all components are added to deionized water, the pH of the medium is adjusted to 7.5. Following filter sterilization, aliquots are dispensed in 100 ul quantities to sterile microtiter plate wells. Dilutions of DBMAL and/or “Biocide B” are then added to the microtiter plate. After preparing the combinations of actives as illustrated below, each well is inoculated with 100 μl of a cell suspension containing ca. 1×10^6 cells per milliliter of a mixture of Pseudomonas aeruginosa, Klebsiella pneumoniae, Staphylococcus aureus, and Bacillus subtilis. The final total volume of medium in each well is 300 μl. […] The resulting matrix allows testing of eight concentrations of each active and 64 combinations of actives in the ratios (of actives).\nControls (not shown) contain the medium with no biocide added. After preparing the combinations of actives as illustrated above, each well is inoculated with 100 μl of a cell suspension containing ca. 1×10^6 cells per milliliter of a mixture of Pseudomonas aeruginosa, Klebsiella pneumoniae, Staphylococcus aureus, and Bacillus subtilis. The final total volume of medium in each well is 300 μl.\nImmediately after the microtiter plates are prepared, the optical density (OD) readings for each well is measured at 580 nm and the plates are then incubated at 37° C. for 24 hr. After the incubation period, the plates are gently agitated before OD580 values are collected. The OD580 values at T0 are subtracted from T24 values to determine the total amount of growth (or lack thereof) that occurs. These values are used to calculate the percent inhibition of growth caused by the presence of each biocide and each of the 64 combinations. A 90% inhibition of growth is used as a threshold for calculating synergy index (SI) values with the following equation: Synergy Index=MDBMAL/CDBMAL+MB/CB\nwhere • CDBMAL: Concentration of DBMAL required to inhibit ˜90% of bacterial growth when used alone • CB: Concentration of biocide (B) required to inhibit ˜90% of bacterial growth when used alone. • MDBMAL: Concentration of DBMAL required to inhibit ˜90% of bacterial growth when used in combination with biocide (B). • MB: Concentration of biocide (B) required to inhibit ˜90% of bacterial growth when used in combination with DBMAL The SI values are interpreted as follows: • SI<1: Synergistic combination • SI=1: Additive combination • SI>1: Antagonistic combination"}},
  "note": "Read-outs that look alike come from different tables or passages of the source.",
  "data": [
    {"smiles": "NC(=O)C(Br)(Br)C(N)=O", "note": "[DBMAL, 2,2-dibromomalonamide]", "values": [
      {"measurement": "MBC (minimum biocide concentration needed to completely kill), biocide alone", "setting": "[1]", "result": 66.7, "unit": "µg/mL"},
      {"measurement": "inhibition at 0.19 µg/mL", "setting": "[2]; Table 3, DBMAL alone 0.19 mg/l", "result": 0, "unit": "%"},
      {"measurement": "inhibition at 0.39 µg/mL", "setting": "[2]; Table 3, DBMAL alone 0.39 mg/l", "result": 0, "unit": "%"},
      {"measurement": "inhibition at 0.78 µg/mL", "setting": "[2]; Table 3, DBMAL alone 0.78 mg/l", "result": 34, "unit": "%"},
      {"measurement": "inhibition at 1.56 µg/mL", "setting": "[2]; Table 3, DBMAL alone 1.56 mg/l", "result": 11, "unit": "%"},
      {"measurement": "inhibition at 3.13 µg/mL", "setting": "[2]; Table 3, DBMAL alone 3.13 mg/l", "result": 38, "unit": "%"},
      {"measurement": "inhibition at 6.25 µg/mL", "setting": "[2]; Table 3, DBMAL alone 6.25 mg/l", "result": 50, "unit": "%"},
      {"measurement": "inhibition at 12.5 µg/mL", "setting": "[2]; Table 3, DBMAL alone 12.5 mg/l", "result": 107, "unit": "%"},
      {"measurement": "inhibition at 25 µg/mL", "setting": "[2]; Table 3, DBMAL alone 25.0 mg/l", "result": 105, "unit": "%"},
      {"measurement": "inhibition at 0.19 µg/mL", "setting": "[2]; Table 6, DBMAL alone 0.19 mg/l", "result": 0, "unit": "%"},
      {"measurement": "inhibition at 0.39 µg/mL", "setting": "[2]; Table 6, DBMAL alone 0.39 mg/l", "result": 0, "unit": "%"},
      {"measurement": "inhibition at 0.78 µg/mL", "setting": "[2]; Table 6, DBMAL alone 0.78 mg/l", "result": 18, "unit": "%"},
      {"measurement": "inhibition at 1.56 µg/mL", "setting": "[2]; Table 6, DBMAL alone 1.56 mg/l", "result": 34, "unit": "%"},
      {"measurement": "inhibition at 3.13 µg/mL", "setting": "[2]; Table 6, DBMAL alone 3.13 mg/l", "result": 50, "unit": "%"},
      {"measurement": "inhibition at 6.25 µg/mL", "setting": "[2]; Table 6, DBMAL alone 6.25 mg/l", "result": 44, "unit": "%"},
      {"measurement": "inhibition at 12.5 µg/mL", "setting": "[2]; Table 6, DBMAL alone 12.5 mg/l", "result": 97, "unit": "%"},
      {"measurement": "inhibition at 25 µg/mL", "setting": "[2]; Table 6, DBMAL alone 25 mg/l", "result": 100, "unit": "%"},
      {"measurement": "inhibition at 0.19 µg/mL", "setting": "[2]; Table 8, DBMAL alone 0.19 mg/l", "result": 0, "unit": "%"},
      {"measurement": "inhibition at 0.39 µg/mL", "setting": "[2]; Table 8, DBMAL alone 0.39 mg/l", "result": 2, "unit": "%"},
      {"measurement": "inhibition at 0.78 µg/mL", "setting": "[2]; Table 8, DBMAL alone 0.78 mg/l", "result": 0, "unit": "%"},
      {"measurement": "inhibition at 1.56 µg/mL", "setting": "[2]; Table 8, DBMAL alone 1.56 mg/l", "result": 0, "unit": "%"},
      {"measurement": "inhibition at 3.13 µg/mL", "setting": "[2]; Table 8, DBMAL alone 3.13 mg/l", "result": 0, "unit": "%"},
      {"measurement": "inhibition at 6.25 µg/mL", "setting": "[2]; Table 8, DBMAL alone 6.25 mg/l", "result": 0, "unit": "%"},
      {"measurement": "inhibition at 12.5 µg/mL", "setting": "[2]; Table 8, DBMAL alone 12.5 mg/l", "result": 100, "unit": "%"},
      {"measurement": "inhibition at 25 µg/mL", "setting": "[2]; Table 8, DBMAL alone 25.0 mg/l", "result": 100, "unit": "%"},
      {"measurement": "inhibition at 0.19 µg/mL", "setting": "[2]; Table 10, DBMAL alone 0.19 mg/l", "result": 7, "unit": "%"},
      {"measurement": "inhibition at 0.39 µg/mL", "setting": "[2]; Table 10, DBMAL alone 0.39 mg/l", "result": 0, "unit": "%"},
      {"measurement": "inhibition at 0.78 µg/mL", "setting": "[2]; Table 10, DBMAL alone 0.78 mg/l", "result": 0, "unit": "%"},
      {"measurement": "inhibition at 1.56 µg/mL", "setting": "[2]; Table 10, DBMAL alone 1.56 mg/l", "result": 0, "unit": "%"},
      {"measurement": "inhibition at 3.13 µg/mL", "setting": "[2]; Table 10, DBMAL alone 3.13 mg/l", "result": 0, "unit": "%"},
      {"measurement": "inhibition at 6.25 µg/mL", "setting": "[2]; Table 10, DBMAL alone 6.25 mg/l", "result": 52, "unit": "%"},
      {"measurement": "inhibition at 12.5 µg/mL", "setting": "[2]; Table 10, DBMAL alone 12.5 mg/l", "result": 99, "unit": "%"},
      {"measurement": "inhibition at 25 µg/mL", "setting": "[2]; Table 10, DBMAL alone 25.0 mg/l", "result": 100, "unit": "%"},
      {"measurement": "inhibition at 0.19 µg/mL", "setting": "[2]; Table 12 (4,4-D), DBMAL alone 0.19 mg/l", "result": 0, "unit": "%"},
      {"measurement": "inhibition at 0.39 µg/mL", "setting": "[2]; Table 12 (4,4-D), DBMAL alone 0.39 mg/l", "result": 6, "unit": "%"},
      {"measurement": "inhibition at 0.78 µg/mL", "setting": "[2]; Table 12 (4,4-D), DBMAL alone 0.78 mg/l", "result": 0, "unit": "%"},
      {"measurement": "inhibition at 1.56 µg/mL", "setting": "[2]; Table 12 (4,4-D), DBMAL alone 1.56 mg/l", "result": 2, "unit": "%"},
      {"measurement": "inhibition at 3.13 µg/mL", "setting": "[2]; Table 12 (4,4-D), DBMAL alone 3.13 mg/l", "result": 0, "unit": "%"},
      {"measurement": "inhibition at 6.25 µg/mL", "setting": "[2]; Table 12 (4,4-D), DBMAL alone 6.25 mg/l", "result": 0, "unit": "%"},
      {"measurement": "inhibition at 12.5 µg/mL", "setting": "[2]; Table 12 (4,4-D), DBMAL alone 12.5 mg/l", "result": 100, "unit": "%"},
      {"measurement": "inhibition at 25 µg/mL", "setting": "[2]; Table 12 (4,4-D), DBMAL alone 25.0 mg/l", "result": 100, "unit": "%"},
      {"measurement": "inhibition at 0.19 µg/mL", "setting": "[2]; Table 12 (TEHT), DBMAL alone 0.19 mg/l", "result": 13, "unit": "%"},
      {"measurement": "inhibition at 0.39 µg/mL", "setting": "[2]; Table 12 (TEHT), DBMAL alone 0.39 mg/l", "result": 8, "unit": "%"},
      {"measurement": "inhibition at 0.78 µg/mL", "setting": "[2]; Table 12 (TEHT), DBMAL alone 0.78 mg/l", "result": 30, "unit": "%"},
      {"measurement": "inhibition at 1.56 µg/mL", "setting": "[2]; Table 12 (TEHT), DBMAL alone 1.56 mg/l", "result": 32, "unit": "%"},
      {"measurement": "inhibition at 3.13 µg/mL", "setting": "[2]; Table 12 (TEHT), DBMAL alone 3.13 mg/l", "result": 45, "unit": "%"},
      {"measurement": "inhibition at 6.25 µg/mL", "setting": "[2]; Table 12 (TEHT), DBMAL alone 6.25 mg/l", "result": 32, "unit": "%"},
      {"measurement": "inhibition at 12.5 µg/mL", "setting": "[2]; Table 12 (TEHT), DBMAL alone 12.5 mg/l", "result": 97, "unit": "%"},
      {"measurement": "inhibition at 25 µg/mL", "setting": "[2]; Table 12 (TEHT), DBMAL alone 25.0 mg/l", "result": 96, "unit": "%"},
      {"measurement": "concentration needed to provide at least 90% inhibition of growth", "setting": "[2]; biocide alone", "result": 12.5, "unit": "mg/L"}
    ]}
  ]
}
